Results reported in patent publication US11691962B2 (eXIthera Pharmaceuticals, Inc., priority 2018, dated 2023).

How the values were obtained:
[1] = target: Factor XIa (Homo sapiens (Human), UniProt P03951); assay: Factor XIa enzyme inhibition assay (dose response, fluorogenic AMC substrate); type: biochemical; conditions: read-out: hFXIa IC50
How it was run: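 Human FXIa at 0.25 nM final with 50 μM final PyroGlu-Pro-Arg-AMC in 20 mM Hepes pH 7.4, 150 mM NaCl, 0.02% Tween 20. Two-fold serial compound dilutions; fluorescence read every minute for 30 min at 30° C. IC50 from a four-parameter Hill fit.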

[2] = target: Thrombin (Homo sapiens (Human), UniProt P00734); assay: Dose response assay for protease inhibitors: thrombin; type: biochemical; conditions: selectivity, thrombin over Factor XIa
How it was run: (§1)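 Fluorogenic AMC-peptide cleavage in 20 mM Hepes pH 7.4, 150 mM NaCl, 0.02% Tween 20; 100 μM stock substrate dilution (Glp-Pro-Arg-AMC for thrombin/trypsin; Pro-Phe-Arg-AMC or Boc-Leu-Gly-Arg-AMC for Factor Xa). Enzyme diluted to 0.5 nM, added last to two-fold compound series; kinetic read at 30° C, 30 min (Factor Xa 60 min); IC50 fitted.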

[3] = target: Factor Xa (Homo sapiens (Human), UniProt P00742); assay: Dose response assay for protease inhibitors: Factor Xa; type: biochemical; conditions: selectivity, Factor Xa over Factor XIa
How it was run: as §1

[4] = Caco-2 cell permeability assay; type: in vitro ADME, human; conditions: human, 37° C.; for Papp A→B at 60 min, 10 μM: Caco-2, apical to basolateral; for Papp B→A at 40 min, 10 μM: Caco-2, basolateral to apical
How it was run: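 Caco-2 monolayers (days 21-25 post-seeding) received 10 μM compound in HBSS-MES pH 6.5 or HBSS-HEPES pH 7.4 (1% DMSO) at 37 °C, for 60 min A-B or 40 min B-A. Donor and receiver samples were quantified by HPLC-MS/MS (SRM), and Papp and recovery were calculated.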

Factor XIa, sequence (P03951 388-625): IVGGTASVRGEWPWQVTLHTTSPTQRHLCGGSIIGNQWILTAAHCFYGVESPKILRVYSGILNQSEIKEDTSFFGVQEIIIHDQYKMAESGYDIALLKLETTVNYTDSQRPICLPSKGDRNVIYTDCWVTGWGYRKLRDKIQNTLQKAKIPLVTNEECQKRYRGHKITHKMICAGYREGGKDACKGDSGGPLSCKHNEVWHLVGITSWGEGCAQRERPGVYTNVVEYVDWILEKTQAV
Factor XIa, sequence (P03951 19-387 partner): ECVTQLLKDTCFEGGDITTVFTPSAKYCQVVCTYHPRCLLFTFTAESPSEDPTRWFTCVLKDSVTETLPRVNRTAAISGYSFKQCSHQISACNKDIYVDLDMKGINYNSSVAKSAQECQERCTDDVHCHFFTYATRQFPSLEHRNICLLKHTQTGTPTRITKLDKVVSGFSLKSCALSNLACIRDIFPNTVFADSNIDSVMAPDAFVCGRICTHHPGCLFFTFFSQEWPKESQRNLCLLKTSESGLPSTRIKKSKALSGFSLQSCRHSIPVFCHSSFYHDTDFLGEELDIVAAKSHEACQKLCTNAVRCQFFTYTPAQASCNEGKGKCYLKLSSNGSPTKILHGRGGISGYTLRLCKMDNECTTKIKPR
Factor Xa, sequence (P00742 235-488): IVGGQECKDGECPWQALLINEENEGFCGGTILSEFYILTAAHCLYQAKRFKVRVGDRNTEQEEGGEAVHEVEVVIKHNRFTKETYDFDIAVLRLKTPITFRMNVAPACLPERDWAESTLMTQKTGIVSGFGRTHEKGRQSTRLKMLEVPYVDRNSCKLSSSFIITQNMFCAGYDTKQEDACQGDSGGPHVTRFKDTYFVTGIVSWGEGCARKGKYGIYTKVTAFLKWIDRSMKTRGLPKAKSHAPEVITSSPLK
Factor Xa, sequence (P00742 41-179 partner): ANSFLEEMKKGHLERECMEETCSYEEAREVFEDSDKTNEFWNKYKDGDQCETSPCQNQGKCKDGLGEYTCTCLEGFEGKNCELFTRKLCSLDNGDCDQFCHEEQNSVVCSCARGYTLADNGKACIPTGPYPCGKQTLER

SMILES	IC50 [1] [µM]	Ratio: Thrombin/FXIa [2]	Ratio: FXa/FXIa [3]	Papp A→B at 60 min, 10 μM [4] [nm/s]	Papp B→A at 40 min, 10 μM [4] [nm/s]
CC[C@@H](NC(=O)N1C(=O)[C@H](Cc2ccnc(N)c2)[C@H]1C(=O)N(C)c1cscn1)c1ccccc1 [Compound 1-8, (2S,3R)-3-((2-aminopyridin-4-yl)methyl)-N2-(4-thiazolyl)-N1-((R)-1-phenylpropyl)-N2-methyl-4-oxoazetidine-1,2-dicarboxamide]	< 0.01	G (“G” indicates 1-100)	H (“H” indicates 101-1000)	< 100	310 to 500
CC[C@@H](NC(=O)N1C(=O)[C@H](Cc2cc(C)nc(NC)c2)[C@H]1C(=O)N(C)c1ccnn1C)C1CCCCC1 [Compound 1-62, (2S,3R)-3-((2-methylamino-6-methylpyridin-4-yl)methyl)-N2-(1-methyl-1H-pyrazol-5-yl)-N1-((R)-1-cyclohexylpropyl)-N2-methyl-4-oxoazetidine-1,2-dicarboxamide]	0.01 to 0.1	I (“I” indicates > 500)	I (“I” indicates > 500)	110 to 300	110 to 300
CC[C@@H](NC(=O)N1C(=O)[C@H](Cc2cc(C)nc(N)c2)[C@H]1C(=O)N(C)c1ccnn1C)C1CCCCC1 [Compound 1-67, (2S,3R)-3-((2-amino-6-methylpyridin-4-yl)methyl)-N2-(1-methyl-1H-pyrazol-5-yl)-N1-((R)-1-cyclohexylpropyl)-N2-methyl-4-oxoazetidine-1,2-dicarboxamide]	0.01 to 0.1	I (“I” indicates > 500)	I (“I” indicates > 500)	110 to 300	310 to 500
CC[C@@H](NC(=O)N1C(=O)[C@H](Cc2ccnc(N)c2)[C@H]1C(=O)N(C)c1ccnn1C)c1cccc(Cl)c1 [Compound 1-4, (2S,3R)-3-((2-aminopyridin-4-yl)methyl)-N2-(1-methyl-1H-pyrazol-5-yl)-N1-((R)-1-(3-chlorophenyl)propyl)-N2-methyl-4-oxoazetidine-1,2-dicarboxamide]	< 0.01	I (“I” indicates > 500)	I (“I” indicates > 500)	110 to 300	110 to 300
CC[C@@H](NC(=O)N1C(=O)[C@H](Cc2cc(C)nc(N)c2)[C@H]1C(=O)N(C)c1nccn1C)c1cc(F)ccc1F [Compound 1-137, (2S,3R)-3-((2-amino-6-methylpyridin-4-yl)methyl)-N2-(1-methyl-1H-imidazol-2-yl)-N1-((R)-1-(2,5-difluorophenyl)propyl)-N2-methyl-4-oxoazetidine-1,2-dicarboxamide]	< 0.01	H (“H” indicates 101-1000)	I (“I” indicates > 500)	< 100	110 to 300
CC[C@@H](NC(=O)N1C(=O)[C@H](Cc2ccnc(N)c2)[C@H]1C(=O)N(C)c1nccn1C)C1CCCCC1 [Compound 1-55, (2S,3R)-3-((2-aminopyridin-4-yl)methyl)-N2-(1-methyl-1H-imidazol-2-yl)-N1-((R)-1-cyclohexylpropyl)-N2-methyl-4-oxoazetidine-1,2-dicarboxamide]	< 0.01	H (“H” indicates 101-1000)	I (“I” indicates > 500)	< 100	310 to 500
CC[C@@H](NC(=O)N1C(=O)[C@H](Cc2ccnc(N)c2)[C@H]1C(=O)N(C)c1nccn1C)c1ccc(C)nc1 [Compound 1-81, (2S,3R)-3-((2-aminopyridin-4-yl)methyl)-N2-(1-methyl-1H-imidazol-2-yl)-N1-((R)-1-(6-methylpyridin-3-yl)propyl)-N2-methyl-4-oxoazetidine-1,2-dicarboxamide]	0.01 to 0.1	H (“H” indicates 101-1000)	I (“I” indicates > 500)	< 100	< 100
CC[C@@H](NC(=O)N1C(=O)[C@H](Cc2ccnc(N)c2)[C@H]1C(=O)N(C)c1cnn(C)c1)c1ccc(C)nc1 [Compound 1-18, (2S,3R)-3-((2-aminopyridin-4-yl)methyl)-N2-(1-methyl-1H-pyrazol-4-yl)-N1-((R)-1-(6-methylpyridin-3-yl)propyl)-N2-methyl-4-oxoazetidine-1,2-dicarboxamide]	0.01 to 0.1	G (“G” indicates 1-100)	H (“H” indicates 101-1000)	< 100	< 100

Second part, the compound after the results:

IC50 [1] [µM]	Ratio: Thrombin/FXIa [2]	Ratio: FXa/FXIa [3]	Papp A→B at 60 min, 10 μM [4] [nm/s]	Papp B→A at 40 min, 10 μM [4] [nm/s]	SMILES
< 0.01	H (“H” indicates 101-1000)	I (“I” indicates > 500)	110 to 300	110 to 300	CN(C(=O)[C@@H]1[C@@H](Cc2ccnc(N)c2)C(=O)N1C(=O)N[C@@H](C1CCCCC1)C1CC1)c1ccn(C)n1 [Compound 1-58, (2S,3R)-3-((2-aminopyridin-4-yl)methyl)-N2-(1-methyl-1H-pyrazol-3-yl)-N1-((R)-cyclohexyl-cyclopropylmethyl)-N2-methyl-4-oxoazetidine-1,2-dicarboxamide]
< 0.01	H (“H” indicates 101-1000)	I (“I” indicates > 500)	< 100	310 to 500	CC[C@@H](NC(=O)N1C(=O)[C@H](Cc2ccnc(N)c2)[C@H]1C(=O)N(C)c1ccn(C)n1)c1ccccc1 [Compound 1-3, (2S,3R)-3-((2-aminopyridin-4-yl)methyl)-N2-(1-methyl-1H-pyrazol-3-yl)-N1-((R)-1-phenylpropyl)-N2-methyl-4-oxoazetidine-1,2-dicarboxamide]
< 0.01	H (“H” indicates 101-1000)	I (“I” indicates > 500)	< 100	110 to 300	CC[C@@H](NC(=O)N1C(=O)[C@H](Cc2cc(C)nc(N)c2)[C@H]1C(=O)N(C)c1ccn(C)n1)c1cccc(Cl)c1 [Compound 1-89, (2S,3R)-3-((2-amino-6-methylpyridin-4-yl)methyl)-N2-(1-methyl-1H-pyrazol-3-yl)-N1-((R)-1-(3-chlorophenyl)propyl)-N2-methyl-4-oxoazetidine-1,2-dicarboxamide]
0.01 to 0.1	H (“H” indicates 101-1000)	I (“I” indicates > 500)	< 100	> 500	CC[C@@H](NC(=O)N1C(=O)[C@H](Cc2ccnc(N)c2)[C@H]1C(=O)N(C)c1nccn1C)c1ccccc1Cl [Compound 1-83]
< 0.01	H (“H” indicates 101-1000)	H (“H” indicates 101-1000)	< 100	110 to 300	CC[C@@H](NC(=O)N1C(=O)[C@H](Cc2ccnc(N)c2)[C@H]1C(=O)N(C)c1ccn(C)n1)c1cccc(Cl)c1 [Compound 1-91, (2S,3R)-3-((2-aminopyridin-4-yl)methyl)-N2-(1-methyl-1H-pyrazol-3-yl)-N1-((R)-1-(3-chlorophenyl)propyl)-N2-methyl-4-oxoazetidine-1,2-dicarboxamide]
< 0.01	H (“H” indicates 101-1000)	I (“I” indicates > 500)	< 100	110 to 300	CC[C@@H](NC(=O)N1C(=O)[C@H](Cc2cc(C)nc(N)c2)[C@H]1C(=O)N(C)c1nccn1C)c1cccc(Cl)c1 [Compound 1-43, (2S,3R)-3-((2-amino-6-methylpyridin-4-yl)methyl)-N2-(1-methyl-1H-imidazol-2-yl)-N1-((R)-1-(3-chlorophenyl)propyl)-N2-methyl-4-oxoazetidine-1,2-dicarboxamide]
< 0.01	H (“H” indicates 101-1000)	I (“I” indicates > 500)	< 100	110 to 300	CC[C@@H](NC(=O)N1C(=O)[C@H](Cc2ccnc(N)c2)[C@H]1C(=O)N(C)c1cn(C)cn1)c1ccccc1 [Compound 1-90, (2S,3R)-3-((2-aminopyridin-4-yl)methyl)-N2-(1-methyl-1H-imidazol-4-yl)-N1-((R)-1-phenylpropyl)-N2-methyl-4-oxoazetidine-1,2-dicarboxamide]
< 0.01	I (“I” indicates > 500)	I (“I” indicates > 500)	< 100	110 to 300	CC[C@@H](NC(=O)N1C(=O)[C@H](Cc2cc(C)nc(N)c2)[C@H]1C(=O)N(C)c1ccnn1C)c1ccc(C)c(C)c1 [Compound 1-152, (2S,3R)-3-((2-amino-6-methylpyridin-4-yl)methyl)-N2-(1-methyl-1H-pyrazol-5-yl)-N1-((R)-1-(3,4-dimethylphenyl)propyl)-N2-methyl-4-oxoazetidine-1,2-dicarboxamide]
